Results reported in patent US11840532B2, “Modulators of THR-β and methods of use thereof” (ALIGOS THERAPEUTICS, INC., priority 2020, dated 2023).

Assays:
[1] = molecular target: T1, human thyroid receptor beta ligand-binding domain (THRβ) (Homo sapiens, UniProt P10828); test: THR Biochemical Assay (Assay 1): TR-FRET thyroid receptor beta coactivator assay; conditions: TR-FRET coactivator recruitment, THRβ LBD; for Emax: read-out: Activity category Assay 1 THRβ (Emax); for EC50: agonist EC50, read-out: Activity category Assay 1 THRβ (EC50)
T1 construct: purchased Invitrogen
T1 sequence (P10828 217-461 limits assumed): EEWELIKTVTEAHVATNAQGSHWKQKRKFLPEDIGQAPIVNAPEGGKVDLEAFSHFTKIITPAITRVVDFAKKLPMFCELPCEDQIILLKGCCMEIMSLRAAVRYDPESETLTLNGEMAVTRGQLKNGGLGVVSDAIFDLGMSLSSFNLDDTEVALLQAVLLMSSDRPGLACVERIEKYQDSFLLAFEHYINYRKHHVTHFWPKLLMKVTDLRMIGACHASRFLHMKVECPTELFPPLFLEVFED
From the text: (§1) THR Biochemical Assay (sAsay 1)
(§2) The TR-FRET thyroid receptor beta coactivator assay was used with slight, optimized modifications of the manufacturer's protocol (Invitrogen). The assay uses a terbium-labeled anti-GST antibody, a glutathione-S-transferase (GST) tagged human thyroid receptor, beta or alpha, ligand-binding domain (LBD), and a fluorescein labeled SRC2-2 coactivator peptide. The antibody interacts with the LBD, where the agonist also binds, resulting in increased affinity for the SRC2-2 coactivator peptide causing energy transfer of the acceptor fluorophore and a FRET emission shift from 495 to 520 nm. The energy transfer is detected as an increase in the fluorescence emission of the fluorescein acceptor, and a decrease in the fluorescence emission of the terbium donor. The assay is performed in a 384-well black plate in a final volume of 20 μL. Serial dilution of various test agonists was performed in DMSO (1% final DMSO concentration) and added to the test plate. Thyroid receptor beta LBD is added to the plate at a final concentration of 1 nM, followed by the mixture of the fluorescein labeled SRC2-2 coactivator peptide, and the terbium-labeled anti-GST antibody at final concentrations of 200 nM and 2 nM respectively. The assay is incubated for 1 h at rt protected from light. The TR-FRET is then measured on a Victor multilabel reader (Perkin Elmer) using an excitation wavelength of 340 nm with emission filters of 495 nm and 520 nm. The assay is quantified by expressing a ratio (520:495) of the intensities, and the resulting activation curves; EC50 values were generated using a sigmoidal dose response (variable slope) equation in GraphPad™ Prism 8.0.

[2] = molecular target: T2, human thyroid receptor alpha ligand-binding domain (THRα) (Homo sapiens, UniProt P10827); test: THR Biochemical Assay (Assay 1): TR-FRET thyroid receptor coactivator assay, alpha LBD; conditions: TR-FRET coactivator recruitment; for Emax: read-out: Activity category Assay 1 THRα (Emax); for EC50: agonist EC50, read-out: Activity category Assay 1 THRα (EC50)
T2 construct: purchased Invitrogen
T2 sequence (P10827 163-410 isoform P10827-2 limits assumed, other chains not shown): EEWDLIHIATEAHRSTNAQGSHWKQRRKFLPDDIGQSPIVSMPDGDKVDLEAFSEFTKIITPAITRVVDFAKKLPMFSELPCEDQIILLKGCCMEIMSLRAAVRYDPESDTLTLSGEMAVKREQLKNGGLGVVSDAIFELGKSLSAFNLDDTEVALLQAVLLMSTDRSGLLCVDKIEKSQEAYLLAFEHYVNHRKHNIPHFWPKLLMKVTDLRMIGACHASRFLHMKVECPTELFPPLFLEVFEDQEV
From the text: as §1, §2

Huh-7 cells = test: Huh-7 Differential Gene Expression (Assay 2): CPT1A RT-qPCR; assay type: cell-based; conditions: Homo sapiens, CPT1A gene expression in Huh-7 cells, 24 hr treatment, TH-depleted DMEM; for EC50: read-out: Activity category Assay 2 EC50; for Emax: read-out: Activity category Assay 2 Emax
Procedure: Huh-7 Differential Gene Expression (Assay 2)
Fetal bovine serum (FBS) was incubated with washed resin (50 mg resin/mL FBS; resin weight is dry weight of resin prior to washing) for 5 hr at room temperature on a rotor. The FBS was separated from the resin via centrifugation and incubated with new, washed resin for 18h at room temperature on a rotor.
Cell Culture and Drug Treatment
Huh-7 cells were cultured in DMEM (10-013-CM, Corning) supplemented with 10% FBS and 1% Pen-Strep at 37° C. under 5% CO2. When 70-80% confluence was reached, the cells were removed by trypsinization. The medium was aspirated from the cell culture dish, the cell monolayer was washed with 1× PBS, and 0.05% trypsin, 0.53 mM EDTA (25-052-CV, Corning) solution was added to the dish. After 3 min incubation, the cells were detached completely by repeatedly pipetting solution onto the monolayer. Equal volume of DMEM supplemented with 10% rFBS and 1% Pen-Strep (TH-depleted DMEM) was added to the dish to inactivate the trypsin. The cell suspension was centrifuged at 350×g at room temperature for 3 min. The supernatant was aspirated out and the cell pellet was resuspended in TH-depleted DMEM. […] After 24 hr incubation, the media was replaced with treatment media. All compounds were serially diluted in DMSO and final concentrations were reached by dilution in TH-depleted DMEM (0.1% DMSO). The cells were incubated in treatment media for 24 hr. Treatments were performed in biological duplicates.
After 24 h in treatment media, the cells were lysed directly on the culture plates and cDNA was produced using the TaqMan™ Fast Advanced Cells-to-CT™ Kit (A35374, Invitrogen) and following the manufacturer's protocol. RT-qPCR for CPT1A (Hs00912671_m1) and two housekeeping genes, ACTB (Hs01060665_g1) and TFG (Hs02832013_g1), was performed using TaqMan™ Fast Advanced Master Mix. RT-qPCR reactions were run on the qTOWER^3 84 G (Analytik Jena) in technical duplicates.
ΔRn values were obtained from the qPCRsoft384 1.0 software and CPT1A gene expression was quantified via the 2ΔΔCt method. Dose-response curves were generated using GraphPad Prism 8 using four parameter logistic equation without top constraint to derive EC50 and Emax.

Row | SMILES | Emax [1] [%] | EC50 [1] [nM] | Emax [2] [%] | EC50 [2] [nM] | EC50 (Huh-7 cells) [nM] | Emax (Huh-7 cells) [%]
1 | Cc1cc(OCc2noc(=O)[nH]2)c(C)c(C)c1Cc1ccc2[nH]cc(C(C)C)c2n1 [Compound 11, 3-((4-((3-isopropyl-1H-pyrrolo[3,2-b]pyridin-5-yl)methyl)-2,3,5-trimethylphenoxy)methyl)-1,2,4-oxadiazol-5(4H)-one] | < 50 | < 50 | < 50 | > 25000 | 100 to 1000 | < 50
2 | Cc1nc(OCC(=O)O)c(C)c(C)c1Cc1ccc2[nH]cc(C(C)C)c2n1 [Compound 6, [[5-([3-isopropyl-1H-pyrrolo[3,2-b]pyridin-5-yl]methyl)-3,4,6-trimethylpyridin-2-yl]oxy]acetic acid] | < 50 | 50 to 250 | < 50 | 1000 to 25000 | 100 to 1000 | < 50
3 | N[C@@H](Cc1cc(I)c(Oc2ccc(O)c(I)c2)c(I)c1)C(=O)O [Reference(T3), triiodothyronine, reference compound] |  |  |  |  | < 100 | > 75
4 | Cc1cc(OCC(=O)O)cc(C)c1Cc1ccc2[nH]cc(C(C)C)c2n1 [Compound 2, 2-(4-((3-isopropyl-1H-pyrrolo[3,2-b]pyridin-5-yl)methyl)-3,5-dimethylphenoxy)acetic acid] | < 50 | < 50 | < 50 | 50 to 250 | < 100 | > 75
5 | Cc1cc(NC(=O)C(=O)O)cc(C)c1Cc1ccc2[nH]cc(C(C)C)c2n1 [Compound 4, 2-((4-((3-isopropyl-1H-pyrrolo[3,2-b]pyridin-5-yl)methyl)-3,5-dimethylphenyl)amino)-2-oxoacetic acid] | 50 to 75 | < 50 | < 50 | < 50 |  | 
6 | Cc1cc(OCc2nn[nH]n2)c(C)c(C)c1Cc1ccc2[nH]cc(C(C)C)c2n1 [Compound 10, 5-(4-((2H-tetrazol-5-yl)methoxy)-2,3,6-trimethylbenzyl)-3-isopropyl-1H-pyrrolo[3,2-b]pyridine] | < 50 | < 50 | < 50 | > 25000 |  | 

Second part, led by results:

Row | Emax [1] [%] | EC50 [1] [nM] | Emax [2] [%] | EC50 [2] [nM] | EC50 (Huh-7 cells) [nM] | SMILES | Emax (Huh-7 cells) [%]
7 | < 50 | < 50 | < 50 | < 50 |  | Cc1cc(NC(=O)c2noc(=O)[nH]2)cc(C)c1Cc1ccc2[nH]cc(C(C)C)c2n1 [Compound 3, N-(4-((3-isopropyl-1H-pyrrolo[3,2-b]pyridin-5-yl)methyl)-3,5-dimethylphenyl)-5-oxo-4,5-dihydro-1,2,4-oxadiazole-3-carboxamide] | 
8 | < 50 | < 50 | < 50 | < 50 |  | CCOC(=O)C(=O)Nc1cc(C)c(Cc2ccc3[nH]cc(C(C)C)c3n2)c(C)c1 [Compound 5, ethyl 2-((4-((3-isopropyl-1H-pyrrolo[3,2-b]pyridin-5-yl)methyl)-3,5-dimethylphenyl)amino)-2-oxoacetate] | 
9 | < 50 | < 50 | < 50 | 250 to 1000 | 100 to 1000 | Cc1cc(OCC(=O)O)c(C)c(C)c1Cc1ccc2[nH]cc(C(C)C)c2n1 [Compound 1, 2-(4-((3-isopropyl-1H-pyrrolo[3,2-b]pyridin-5-yl)methyl)-2,3,5-trimethylphenoxy)acetic acid] | > 75
10 | < 50 | < 50 | < 50 | > 25000 |  | Cc1cc(OC(F)C(=O)O)c(C)c(C)c1Cc1ccc2[nH]cc(C(C)C)c2n1 (stereo not drawn) [Compound 9, 2-fluoro-2-(4-((3-isopropyl-1H-pyrrolo[3,2-b]pyridin-5-yl)methyl)-2,3,5-trimethylphenoxy)acetic acid] | 
11 | < 50 | 1000 to 25000 | < 50 | > 25000 |  | Cc1cc(OC(C)C(=O)O)c(C)c(C)c1Cc1ccc2[nH]cc(C(C)C)c2n1 (stereo not drawn) [Compound 7, 2-(4-((3-isopropyl-1H-pyrrolo[3,2-b]pyridin-5-yl)methyl)-2,3,5-trimethylphenoxy)propanoic acid] | 
12 | < 50 | < 50 | < 50 | > 25000 |  | Cc1cc(OC(C)(C)C(=O)O)c(C)c(C)c1Cc1ccc2[nH]cc(C(C)C)c2n1 [Compound 8, 2-(4-((3-isopropyl-1H-pyrrolo[3,2-b]pyridin-5-yl)methyl)-2,3,5-trimethylphenoxy)-2-methylpropanoic acid] | 
